From patent publication US20160128982A1, “ANTIMICROBIAL COMPOSITIONS AND METHODS OF USE” (DERMCARE-VET PTY LTD, priority 2013, published 2016)

Experiments:
[1] = tested on: Staphylococcus pseudintermedius; assay: Well diffusion, zone of inhibition on Mueller-Hinton agar; type: cell-based; conditions: 37° C. 18 to 24 hours; for Zone of Inhibition: 50 μL per well
Procedure: (§1) 1. To determine whether propylene glycol was a suitable solvent to solubilize miconazole. A Mueller-Hinton agar (MH) plate containing a well was inoculated with Staphylococcus pseudintermedius and a Sabouraud dextrose agar (SAB) plate containing a 6 mm well was inoculated with Malassezia pachydermatis. The wells were filled with 50 μL propylene glycol and the MH plate were incubated at 37° C. for 18 to 24 hours and the SAB plate was incubated at 30 to 35° C. for 72 hours. The plates were then observed for any inhibition of microbial growth around the well.
(§2) 2. To determine suitable concentrations of miconazole and PHMB, MH agar plates containing wells were inoculated with S. pseudintermedius and SAB plates containing wells were inoculated with M. pachydermatis. The wells were filled with 50 μL of varying concentrations of miconazole or PHMB. The MH plates were incubated at 37° C. for 18 to 24 hours and the SAB plates were incubated at 30 to 35° C. for 48 hours.
(§3) After incubation, the diameter of the zone of inhibition around the well was measured.

Malassezia pachydermatis = assay: Well diffusion, zone of inhibition on Sabouraud dextrose agar; type: cell-based
Procedure: as §1, §2, §3

[2] = tested on: S. pseudintermedius isolates; assay: Agar dilution MIC and FICI, isolates from dogs (Example 3); type: cell-based, Staphylococcus pseudintermedius; conditions: miconazole alone
Procedure: (§4) The miconazole was initially dissolved in propylene glycol but dilutions were prepared by diluting this solution with water. […] Two isolates of Staphylococcus pseudintermedins of different origin were used. After incubation the plates were examined to determine the lowest concentration that inhibited growth of the microbe. The concentrations were used to calculate the Fractional Inhibitory Concentration Index (FICI) which is a measure of synergism between the components in the combination. The FICI is calculated using the following equations: […]≦0.5 Indicates synergy between components FICI>0.5-4.0 indicates no interaction between components FICI>4.0 indicates antagonism between components The procedure from Example 2 was repeated with different bacterial and fungal isolates obtained from dogs with bacterial or fungal infections. Eight S. pseudintermedius isolates obtained from eight different dogs and three M. pachydermatis isolates from three different dogs were analysed.

[3] = tested on: M. pachydermatis isolates; assay: as above; type: cell-based, Malassezia pachydermatis; conditions: miconazole alone
Procedure: as §4

[4] = tested on: Staphylococcus pseudintermedius; assay: Agar dilution MIC and FICI (Example 2); type: cell-based
Procedure: (§5) The MIC of PHMB, miconazole and mixtures of PHMB and miconazole were determined by adding varying concentrations of each component or their combination to molten Mueller-Hinton agar and SAB agar. The miconazole was initially dissolved in propylene glycol but dilutions were prepared by diluting this solution with water.
(§6) The concentrations of miconazole, PHMB or combination of PHMB and miconazole tested included:
(§7) A drop of microbial suspension containing one of: • a) Staphylococcus pseudintermedius and • b) Candida albicans
(§8) was added to a MH agar plate and SAB plate respectively of each concentration of each concentration of miconazole, PHMB and combinations thereof and the MH plates were incubated for 24 to 48 hours at 37° C. and the SAB plates were incubated at 20 to 35° C. for 48 hours. Two isolates of Staphylococcus pseudintermedins of different origin were used.
(§9) After incubation the plates were examined to determine the lowest concentration that inhibited growth of the microbe.
(§10) The concentrations were used to calculate the Fractional Inhibitory Concentration Index (FICI) which is a measure of synergism between the components in the combination. The FICI is calculated using the following equations:
(§11) FICMICONAZOLE=MICMICONAZOLE+PHMB/MICMICONAZOLE
(§12) FICPHMB=MICPHMB+MICONAZOLE/MICPHMB
(§13) FICI=FICMICONAZOLE+FICPHMB
(§14) FICI≦0.5 Indicates synergy between components
(§15) FICI>0.5-4.0 indicates no interaction between components
(§16) FICI>4.0 indicates antagonism between components

Candida albicans = assay: Agar dilution MIC and FICI (Example 2); type: cell-based; conditions: miconazole alone
Procedure: as §5, §6, §7, §8, §9, §10, §11, §12, §13, §14, §15, §16

Structure (SMILES): CC(O)CO (centres unmarked) [propylene glycol]
- inhibition of microbial growth around the well ([1]; 50 μL propylene glycol per well): No zone of inhibition
- inhibition of microbial growth around the well (Malassezia pachydermatis; 50 μL propylene glycol in 6 mm well, 30 to 35° C. 72 hours): No zone of inhibition

Structure (SMILES): Clc1ccc(COC(Cn2ccnc2)c2ccc(Cl)cc2Cl)c(Cl)c1 (centres unmarked) [miconazole]
- Zone of Inhibition ([1]; Miconazole concentration 0.0009%): 14-17 mm
- Zone of Inhibition ([1]; Miconazole concentration 0.0019%): 14-16 mm
- Zone of Inhibition ([1]; Miconazole concentration 0.0039%): 17-18 mm
- Zone of Inhibition (Malassezia pachydermatis; Miconazole concentration 0.0009%, 50 μL per well, 30 to 35° C. 48 hours): 25 mm
- MIC miconazole ([2]; isolate 1): 0.00012%
- MIC miconazole ([2]; isolate 2): 0.00012%
- MIC miconazole ([2]; isolate 3): 0.00012%
- MIC miconazole ([2]; isolate 4): 0.00012%
- MIC miconazole ([2]; isolate 5): 0.00012%
- MIC miconazole ([2]; isolate 6): 0.00012%
- MIC miconazole ([2]; isolate 7): 0.00012%
- MIC miconazole ([2]; isolate 8): 0.00012%
- MIC miconazole ([3]; isolate 1): 0.00003%
- MIC miconazole ([3]; isolate 2): 0.00006%
- MIC miconazole ([3]; isolate 3): 0.000015%
- MIC Micon % ([4]; miconazole alone, two isolates of different origin): 0.00012%
- concentration at which an antimicrobial effect begins ([4]; used alone): about 0.00012 wt %
- MIC Micon % (Candida albicans): 0.00095%
